Assay results reported in article PMC9297976 (Journal of Applied Toxicology, 2021).

Tests used:
medaka Esr1 (mEsr1) [1] = target: T1, medaka Esr1 (mEsr1) (Oryzias latipes, UniProt P50241); experiment: cell-based; design: species or system Japanese medaka (Oryzias latipes)
T1 sequence (P50241 1-620): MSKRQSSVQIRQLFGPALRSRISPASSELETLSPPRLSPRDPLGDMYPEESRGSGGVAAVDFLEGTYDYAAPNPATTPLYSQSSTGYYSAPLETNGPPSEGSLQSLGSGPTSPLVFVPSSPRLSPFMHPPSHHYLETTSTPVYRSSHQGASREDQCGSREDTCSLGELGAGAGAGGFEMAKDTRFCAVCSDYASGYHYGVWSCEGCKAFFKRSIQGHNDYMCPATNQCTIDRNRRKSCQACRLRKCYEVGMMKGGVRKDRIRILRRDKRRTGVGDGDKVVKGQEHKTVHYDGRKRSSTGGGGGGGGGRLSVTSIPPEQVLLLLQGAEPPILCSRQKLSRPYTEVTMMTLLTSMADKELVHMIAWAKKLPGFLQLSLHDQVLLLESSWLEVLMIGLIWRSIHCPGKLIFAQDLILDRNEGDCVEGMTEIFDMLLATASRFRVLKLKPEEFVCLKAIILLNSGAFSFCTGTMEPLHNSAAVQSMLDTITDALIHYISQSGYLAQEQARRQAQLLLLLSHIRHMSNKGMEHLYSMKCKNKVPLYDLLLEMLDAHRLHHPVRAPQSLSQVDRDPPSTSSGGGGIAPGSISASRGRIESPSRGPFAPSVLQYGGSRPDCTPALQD

medaka Esr1 (mEsr1) [2] = target: T1, medaka Esr1 (mEsr1); experiment: Medaka Esr1 reporter gene assay, antagonist assay; assay type: cell-based, Japanese medaka (Oryzias latipes); settings: E2 spiked at 1.0 nM (B); MAC = 1.0 × 10^−4 M
medaka ARβ (mArβ) [3] = target: T2, medaka ARβ (mArβ) (Oryzias latipes, UniProt D1MV73); experiment: Medaka ARβ reporter gene assay, agonist assay; assay type: cell-based, Japanese medaka (Oryzias latipes)
T2 sequence (D1MV73 1-744): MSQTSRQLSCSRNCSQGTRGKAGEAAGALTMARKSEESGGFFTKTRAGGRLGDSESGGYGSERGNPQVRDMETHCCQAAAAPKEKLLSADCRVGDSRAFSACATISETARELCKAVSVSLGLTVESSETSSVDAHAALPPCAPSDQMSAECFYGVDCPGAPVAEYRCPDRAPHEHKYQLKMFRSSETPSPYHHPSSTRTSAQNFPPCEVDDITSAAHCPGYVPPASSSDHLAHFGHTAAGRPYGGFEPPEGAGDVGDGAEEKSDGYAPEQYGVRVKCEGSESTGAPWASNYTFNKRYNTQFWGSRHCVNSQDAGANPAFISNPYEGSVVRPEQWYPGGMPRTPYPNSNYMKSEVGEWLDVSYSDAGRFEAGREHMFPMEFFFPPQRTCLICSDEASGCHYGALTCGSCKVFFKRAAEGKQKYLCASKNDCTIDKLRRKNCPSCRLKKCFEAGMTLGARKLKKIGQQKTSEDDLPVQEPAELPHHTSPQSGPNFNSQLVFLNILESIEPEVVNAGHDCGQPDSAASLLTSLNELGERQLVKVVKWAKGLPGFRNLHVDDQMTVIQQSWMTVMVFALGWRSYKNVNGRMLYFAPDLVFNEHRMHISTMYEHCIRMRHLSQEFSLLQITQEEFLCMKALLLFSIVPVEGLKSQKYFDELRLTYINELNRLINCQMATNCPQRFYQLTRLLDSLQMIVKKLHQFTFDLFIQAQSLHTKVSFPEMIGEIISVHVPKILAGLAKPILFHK

medaka ARβ (mArβ) [4] = target: T2, medaka ARβ (mArβ); experiment: Medaka ARβ reporter gene assay, antagonist assay; assay type: cell-based, Japanese medaka (Oryzias latipes)
[5] = test system: Japanese medaka (Oryzias latipes); experiment: Fish Short‐Term Reproduction Assay; assay type: in vivo; settings: for GSI Female / GSI Male / HSI Female / HSI Male / Length Female / Length Male / Weight Female / Weight Male: completion of exposure
[6] = measured concentration 0.0943 mg/L
[7] = measured concentration 0.939 mg/L
[8] = measured concentration 9.53 mg/L

O=C(c1ccc(O)cc1O)c1ccc(O)cc1O [BP2, Benzophenone‐2]
In vitro positive: Esr (medaka Esr1 (mEsr1) [1]; mode of action in which EC50 or PC10 was obtained in RGA): Esr
EC50 (medaka Esr1 (mEsr1) [1]; read-out: Agonistic activity EC50, HEK293 cells): 1.6 µM
Antagonistic activity (medaka Esr1 (mEsr1) [2]): NE (MAC = 1.0 × 10^−4 M)^(B)
Agonistic activity PC10 (medaka ARβ (mArβ) [3]; HepG2 cells, concentration with 10% of maximum activity of 11KT): PC10 = 1.2 × 10^−5 M
Agonistic activity on mArβ (in words) (medaka ARβ (mArβ) [3]; only PC10 and not EC50 could be estimated): positive agonistic activity
In vitro positive: aAr (medaka ARβ (mArβ) [4]; mode of action in which IC50 or IC30 was obtained in RGA): aAr
IC50 (medaka ARβ (mArβ) [4]; read-out: Antagonistic activity IC50, 11‐KT spiked at 50 nM (D)): 40 µM
Antagonistic activity on mArβ (in words) (medaka ARβ (mArβ) [4]; transcriptional activity on mArβ by 11KT): inhibitory potency
Fertility rate ([5]; 0.0943 mg/L measured, 21 d): 95 ± 2.3%
Hepatic VTG, female ([5]; 0.0943 mg/L measured, 21 d): 354 ± 105 ng/mg‐liver
Hepatic VTG, male ([5]; 0.0943 mg/L measured, 21 d): 0.5 ± 0.0 ng/mg‐liver
Mortality ([5]; 0.0943 mg/L measured, 21 d): 0.0%
Mortality, number of dead fish ([5]; 0.0943 mg/L measured, 21 d): 0
Number of fertilized eggs (per female per day) ([5]; 0.0943 mg/L measured, 21 d): 15 ± 2.2
Number of total eggs (per female per day) ([5]; 0.0943 mg/L measured, 21 d): 15 ± 2.3
SSC female (joint plates with papillary processes) ([5]; 0.0943 mg/L measured, 21 d): 0 ± 0
SSC male (joint plates with papillary processes) ([5]; 0.0943 mg/L measured, 21 d): 73 ± 7.0
Fertility rate ([5]; 0.939 mg/L measured, 21 d): 94 ± 2.5%
Hepatic VTG, female ([5]; 0.939 mg/L measured, 21 d): 398 ± 230 ng/mg‐liver
Hepatic VTG, male ([5]; 0.939 mg/L measured, 21 d): 0.9 ± 0.5 ng/mg‐liver
Mortality ([5]; 0.939 mg/L measured, 21 d): 4.2%
Mortality, number of dead fish ([5]; 0.939 mg/L measured, 21 d): 1
Number of fertilized eggs (per female per day) ([5]; 0.939 mg/L measured, 21 d): 14 ± 2.3
Number of total eggs (per female per day) ([5]; 0.939 mg/L measured, 21 d): 15 ± 2.7
SSC female (joint plates with papillary processes) ([5]; 0.939 mg/L measured, 21 d): 0 ± 0
SSC male (joint plates with papillary processes) ([5]; 0.939 mg/L measured, 21 d): 77 ± 20
Hepatic VTG, female ([5]; 9.53 mg/L measured, 21 d): 449 ± 114 ng/mg‐liver
Mortality ([5]; 9.53 mg/L measured, 21 d): 0.0%
Mortality, number of dead fish ([5]; 9.53 mg/L measured, 21 d): 0
Number of fertilized eggs (per female per day) ([5]; 9.53 mg/L measured, 21 d): 13 ± 1.7
Number of total eggs (per female per day) ([5]; 9.53 mg/L measured, 21 d): 14 ± 1.7
SSC female (joint plates with papillary processes) ([5]; 9.53 mg/L measured, 21 d): 0 ± 0
SSC male (joint plates with papillary processes) ([5]; 9.53 mg/L measured, 21 d): 79 ± 8.4
Hepatic VTG, male ([5]; 9.53 mg/L measured, 21 d, sig. ↑ vs control): 393 ± 306 ng/mg‐liver
Fertility rate ([5]; 9.53 mg/L measured, 21 d, sig. ↓ vs control): 90 ± 3.5%
LOEC, elevated hepatic VTG in males ([5]; 21 d): 9.53 mg/L
LOECmVTG ([5]; LOEC on VTG induction in males): 9,530 μg/L
LOECREPRO ([5]; LOEC on reproduction (fecundity and/or fertility)): 9,530 μg/L
LOECREPRO (reduction in fecundity or fertility) ([5]; concentrations without overt toxicity): 9,530 μg/L
LOECTOX ([5]; lowest observed effect concentration on mortality): ND (>9,530) μg/L
GSI Female [5, 6]: 6.9 ± 0.3%
GSI Male [5, 6]: 1.07 ± 0.14%
HSI Female [5, 6]: 2.8 ± 0.87%
HSI Male [5, 6]: 1.8 ± 0.37%
Length Female [5, 6]: 30.2 ± 0.4 mm
Length Male [5, 6]: 30.8 ± 1.2 mm
Weight Female [5, 6]: 296 ± 16 mg
Weight Male [5, 6]: 291 ± 27 mg
GSI Female [5, 7]: 7.6 ± 1.2%
GSI Male [5, 7]: 0.69 ± 0.15%
HSI Female [5, 7]: 3.1 ± 0.68%
HSI Male [5, 7]: 1.9 ± 0.24%
Length Female [5, 7]: 30.3 ± 1.0 mm
Length Male [5, 7]: 30.6 ± 1.1 mm
Weight Female [5, 7]: 304 ± 48 mg
Weight Male [5, 7]: 290 ± 32 mg
GSI Female [5, 8]: 8.6 ± 0.4%
GSI Male [5, 8]: 0.79 ± 0.23%
HSI Female [5, 8]: 3.5 ± 0.58%
HSI Male [5, 8]: 2.0 ± 0.55%
Length Female [5, 8]: 30.4 ± 0.5 mm
Length Male [5, 8]: 31.9 ± 1.1 mm
Weight Female [5, 8]: 295 ± 8.0 mg
Weight Male [5, 8]: 327 ± 34 mg
